In US20220151982A1, “CANNABINOID COMPOSITIONS AND USE THEREOF” (priority 2019, published 2022):
Several values for one entry are separate records, joined by “and”; a condition that tells them apart may be missing. Identical values can stand only once. Like-named read-outs stand apart in the source and are kept apart here.

What was measured:
[1] = test system: resistant pancreatic cancer cells (PANC-1); assay type: cell-based; details: 4 h exposure, XTT after 72 h
Procedure: (§1) A resistant pancreatic cancer cells line (PANC-1) was exposed to fluorouracil (5-FU), Tetrahydrocannabinolic acid (THCa) and combination thereof. The cells were exposed to the treatment agents for 4 hours, after which the media was replaced. Cell survival/death levels were measured after 72 hours by XTT. The percent of cell survival was determined as the absorbance signal with subtracted background (media only) and normalized by mock. Each experimental combination was performed in quadruplicate/pentaplicate.

[2] = test system: Methicillin-resistant Staphylococcus aureus (MRSA); experiment: MRSA killing by CFU counting after 4 h incubation; details: for Percentage death of MRSA cells, Antibiotics alone: antibiotic at MIC value; for Percentage death of MRSA cells, Antibiotics + CBD (565 μM): antibiotic at MIC value + CBD 565 μM
NAR cell's efflux pumps = experiment: Doxorubicin efflux into the media from pre-treated resistant cells; assay type: cell-based; details: NAR pre-treated with sub-lethal Doxorubicin; media with vs without cannabinoid, 5 minutes to 24 hours
Procedure: A resistant ovarian cancer cell line (NAR) was pre-treated with sub-lethal concentrations of Doxorubicin (Dox), and then incubated in media with and without THCa or CBD for time periods ranging from 5 minutes to 24 hours (a total of 12 time points were measured). The ability of the cells to efflux Dox into the media was measured and compared between the cells grown in the presence and absence of THCa (FIG. 8A) or CBD (FIG. 8B).

[3] = test system: resistant ovarian cancer cells (NAR); assay type: cell-based; details: 4 h exposure, XTT after 72 h
Procedure: as §1, with “A non-resistant ovarian cancer cells lines (OVCAR8) and a” for “A”, “resistant ovarian” for “resistant pancreatic”, “line (NAR) were” for “line (PANC-1) was”, “to various concentrations of Doxorubicin (Dox),” for “to fluorouracil (5-FU),”, “and combinations” for “and combination”
(§2) A non-resistant ovarian cancer cells line (OVCAR8) and a resistant ovarian cancer cell line (NAR) were exposed to various concentrations of Doxorubicin (Dox), Cannabidiol (CBD) and combinations thereof. The cells were exposed to the treatment agents for 4 hours, after which the media was replaced. Cell survival/death levels were measured after 72 hours by XTT. The percent of cell survival was determined as the absorbance signal with subtracted background (media only) and normalized by mock. Each experimental combination was performed in quadruplicate/pentaplicate.
(§3) The resistant ovarian cancer cells line (NAR) was exposed to various concentrations of Taxol (Paclitaxel), Tetrahydrocannabinolic acid (THCa) and combinations thereof. The cells were exposed to the treatment agents for 4 hours, after which the media was replaced. Cell survival/death levels were measured after 72 hours by XTT. The percent of cell survival was determined as the absorbance signal with subtracted background (media only) and normalized by mock. Each experimental combination was performed in quadruplicate/pentaplicate.
as §3, with “Cisplatin,” for “Taxol (Paclitaxel),”

[4] = test system: resistant ovarian cancer cells (NAR); assay type: cell-based; details: CBN 674 or 270 μM added to Dox
[5] = test system: non-resistant ovarian cancer cells (OVCAR8); experiment: XTT cell survival/death, non-resistant ovarian cancer cells; assay type: cell-based; details: Doxorubicin 30 μM alone, 4 h exposure, XTT after 72 h
Procedure: as §2, with “cancer cells lines (OVCAR8) and” for “cancer cells line (OVCAR8) and”, “ovarian cancer cells line (NAR)” for “ovarian cancer cell line (NAR)”, “Doxorubicin (Dox), Tetrahydrocannabinolic acid (THCa) and combinations” for “Doxorubicin (Dox), Cannabidiol (CBD) and combinations”
as §2

[6] = test system: lung cancer resistant cells (NCI-H69/LX4); assay type: cell-based; details: 4 h exposure, XTT after 72 h
Procedure: as §1, with “A multi-drug” for “A”, “small cell lung” for “pancreatic”, “(NCI-H69/LX4)” for “(PANC-1)”, “Vincristine,” for “fluorouracil (5-FU),”

O=c1[nH]cc(F)c(=O)[nH]1 [5-FU, fluorouracil]
cell death ([1]; 5-FU 2 μM alone): 14%

C=C(C)[C@@H]1CCC(C)=C[C@H]1c1c(O)cc(CCCCC)cc1O [CBD, 2-[(6R)-3-Methyl-6-prop-1-en-2-yl-lcyclohex-2-envyl]-5pentylbenzene-1,3-diol]
Percentage death of MRSA cells, CBD (565 μM) alone ([2]; Table 2, CBD 565 μM without antibiotic, 4 hours): 9%
decrease of Dox efflux levels (NAR cell's efflux pumps): ~40%
cell death ([3]; CBD 283 μM + Doxorubicin 30 μM): 35%
cell death ([3]; CBD 565 μM + Doxorubicin 30 μM): 75%

CCCCCc1cc(O)c2c(c1)OC(C)(C)c1ccc(C)cc1-2 [CBN, Cannabinol]
effect on Dox toxicity (enhancement of cell death) [4]: did not significantly enhance cell death

O=C(N[C@H](CO)[C@H](O)c1ccc([N+](=O)[O-])cc1)C(Cl)Cl [Chloramphenicol]
Percentage death of MRSA cells, Antibiotics alone ([2]; Table 1, 4 hours): 12%
Percentage death of MRSA cells, Antibiotics + CBD (565 μM) ([2]; Table 2, 4 hours): 58%
Percentage death of MRSA cells, Antibiotics alone ([2]; Table 2, 4 hours): 12%

O=C(O)c1cn(C2CC2)c2cc(N3CCNCC3)c(F)cc2c1=O [Ciprofloxacin]
Percentage death of MRSA cells, Antibiotics alone ([2]; Table 1, 4 hours): 14%
Percentage death of MRSA cells, Antibiotics + CBD (565 μM) ([2]; Table 2, 4 hours): 54%
Percentage death of MRSA cells, Antibiotics alone ([2]; Table 2, 4 hours): 14%

N.N.[Cl][Pt][Cl] [Cisplatin]
cell death ([3]; Cisplatin 115 μM alone): 12%

COc1cccc2c1C(=O)c1c(O)c3c(c(O)c1C2=O)C[C@@](O)(C(=O)CO)C[C@@H]3O[C@H]1C[C@H](N)[C@H](O)[C@H](C)O1 [Doxorubicin]
cell death [5]: 94%
cell death ([3]; Doxorubicin 30 μM alone): 16% and 20%
cell death ([3]; Doxorubicin 30 μM alone, listed as Dox): 20%

CO[C@H]1/C=C/O[C@@]2(C)Oc3c(C)c(O)c4c(O)c(c(/C=N/N5CCN(C)CC5)c(O)c4c3C2=O)NC(=O)/C(C)=C\C=C\[C@H](C)[C@H](O)[C@@H](C)[C@@H](O)[C@@H](C)[C@H](OC(C)=O)[C@@H]1C [Rifampicin]
Percentage death of MRSA cells, Antibiotics alone ([2]; Table 1, 4 hours): 17%
Percentage death of MRSA cells, Antibiotics + CBD (565 μM) ([2]; Table 2, 4 hours): 73%
Percentage death of MRSA cells, Antibiotics + CBD (565 μM) ([2]; Table 2, 4 hours, listed as rifampicin): 73%
Percentage death of MRSA cells, Antibiotics alone ([2]; Table 2, 4 hours): 17%

CCCCCc1cc2c(c(O)c1C(=O)O)[C@@H]1C=C(C)CC[C@H]1C(C)(C)O2 [THCa, tetrahydrocannabinolic acid]
Percentage death of MRSA cells, THCa (88 μM) alone ([2]; Table 1, THCa 88 μM without antibiotic, 4 hours): 6%
cell death ([6]; THCa 247 μM + Vincristine 10 μM): 95%
cell death ([6]; THCa 247 μM alone): 12%
decrease of Dox efflux levels (NAR cell's efflux pumps): ~50%
cell death ([3]; THCa 86 μM + Doxorubicin 30 μM): 64%
cell death ([3]; THCa 172 μM + Doxorubicin 30 μM): 86%
cell death ([3]; THCa 247 μM + Cisplatin 115 μM): 94%
cell death ([3]; THCa 247 μM + Taxol 50 μM): 94%
cell death ([3]; THCa 247 μM alone): 20% and 18%
cell death ([1]; THCa 247 μM + 5-FU 2 μM): 77%
cell death ([1]; THCa 247 μM alone): 8%

CC(=O)O[C@H]1C(=O)[C@@]2(C)[C@H]([C@H](OC(=O)c3ccccc3)[C@]3(O)C[C@H](OC(=O)[C@H](O)[C@@H](NC(=O)c4ccccc4)c4ccccc4)C(C)=C1C3(C)C)[C@]1(OC(C)=O)CO[C@@H]1C[C@@H]2O [Taxol, Paclitaxel]
cell death ([3]; Taxol 50 μM alone): 23%

CN(C)[C@@H]1C(O)=C(C(N)=O)C(=O)[C@@]2(O)C(O)=C3C(=O)c4c(O)cccc4[C@@](C)(O)[C@H]3C[C@@H]12 [Tetracycline]
Percentage death of MRSA cells, Antibiotics alone ([2]; Table 1, 4 hours): 7%
Percentage death of MRSA cells, Antibiotics + CBD (565 μM) ([2]; Table 2, 4 hours): 42%
Percentage death of MRSA cells, Antibiotics + CBD (565 μM) ([2]; Table 2, 4 hours, listed as tetracycline): 42%
Percentage death of MRSA cells, Antibiotics alone ([2]; Table 2, 4 hours): 7%

CN[C@H](CC(C)C)C(=O)N[C@H]1C(=O)N[C@@H](CC(N)=O)C(=O)N[C@H]2C(=O)N[C@H]3C(=O)N[C@H](C(=O)N[C@H](C(=O)O)c4cc(O)cc(O)c4-c4cc3ccc4O)[C@H](O)c3ccc(c(Cl)c3)Oc3cc2cc(c3O[C@@H]2O[C@H](CO)[C@@H](O)[C@H](O)[C@H]2O[C@H]2C[C@](C)(N)[C@H](O)[C@H](C)O2)Oc2ccc(cc2Cl)[C@H]1O [Vancomycin]
Percentage death of MRSA cells, Antibiotics alone ([2]; Table 1, 4 hours): 8%
Percentage death of MRSA cells, Antibiotics + CBD (565 μM) ([2]; Table 2, 4 hours): 61%
Percentage death of MRSA cells, Antibiotics alone ([2]; Table 2, 4 hours): 8%

CC[C@]1(O)C[C@H]2CN(CCc3c([nH]c4ccccc34)[C@@](C(=O)OC)(c3cc4c(cc3OC)N(C=O)[C@H]3[C@@](O)(C(=O)OC)[C@H](OC(C)=O)[C@]5(CC)C=CCN6CC[C@]43[C@@H]65)C2)C1 [Vincristine]
cell death ([6]; Vincristine 10 μM alone): 17%

Gentamycin
Percentage death of MRSA cells, Antibiotics + THCa (88 μM) [2]: 85%
Percentage death of MRSA cells, Antibiotics alone ([2]; Table 1, 4 hours): 15%
Percentage death of MRSA cells, Antibiotics + CBD (565 μM) ([2]; Table 2, 4 hours): 58%
Percentage death of MRSA cells, Antibiotics alone ([2]; Table 2, 4 hours): 15%
